Experimental data taken from US20100221241A1, “C[…] ENVELOPE-BASED IMMUNOGEN THAT SIMU[…] RECEPTOR AND […] SITES” (UNIVERSITY OF MARYLAND BIOTECHNOLOGY INSTITUTE, priority 2005, published 2010).
No end group written: not given here.

Assays:
HIV = conditions: compared with monomeric CD4M9; used with surface HIV virion; cited from earlier work
[1] = tested on: trimers (soluble gp120 trimer); assay: Surface Plasmon Resonance binding to trimers; set-up: species or system HIV; conditions: compared with monomeric CD4M9
Text: Recently, the X-ray crystal structure of free gp120 was solved (1) and along with X-ray tomography images of envelope spikes (3), used to build a computational model of the envelope trimer (1). […] The line between the binding sites is a “ruler” divided into 1 nm units, which was used to estimate distances between binding sites.

For “bi-CD4M9-MS: bivalent polypeptide containing two CD4M9 moieties separated by polyethylene glycol linker placing the binding residues 5.2 nm apart (CNLATCQLTCKSLGLLGKCAGSFCACGP; cysteine pairing not given here; also: bivalent: two CD4M9 moieties joined by a polyethylene glycol linker)”, the HIV inhibition (HIV) is given as “more potent HIV inhibition than monomeric CD4M9” and the “forward rate constant for binding” value [1] is given as “significantly different from monomeric CD4M9”.
